According to patent EP0469548B1, “4-Amino-delta4-steroids and their use as 5alpha-reductase inhibitors” (MERRELL PHARMACEUTICALS INC., priority 1990, dated 1992):

The compounds below were run against T1, steroid 5α-reductase enzyme (Homo sapiens, UniProt P31213) (assay: 5α-reductase inhibition in microsomal preparations (conversion of testosterone to dihydrotestosterone, HPLC)).
T1 construct: Microsomal preparations of the steroid 5α-reductase enzyme (protein) were obtained from human prostate tissue; from tissue; host or cells: human prostate tissue (microsomal preparation)
T1 sequence (P31213 1-254): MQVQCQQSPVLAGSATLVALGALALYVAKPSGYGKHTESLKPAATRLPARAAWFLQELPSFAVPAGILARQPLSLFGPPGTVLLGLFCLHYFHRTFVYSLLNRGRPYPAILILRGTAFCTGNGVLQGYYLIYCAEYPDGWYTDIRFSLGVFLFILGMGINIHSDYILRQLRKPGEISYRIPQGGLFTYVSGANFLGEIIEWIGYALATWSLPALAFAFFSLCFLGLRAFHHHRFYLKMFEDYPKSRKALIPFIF
Format: biochemical
Description: Microsomal preparations of the steroid 5α-reductase enzyme (protein) were obtained from human prostate tissue and stored in aliquots. Protein concentration was determined prior to use of the samples. In the method itself, individual assays for 5α-reductase activity contained 0.1M phosphate citrate buffer, pH 5.6, 1mM EDTA, 7 to 22 µg of microsomal protein, 1mM NADPH, 5 mM glucose-6-phosphate, 1 IU/ml glucose-6-phosphate dehydrogenase, 1,2-³H-testosterone, and test compound, dissolved in dimethyl sulfoxide and then diluted in phosphate-citrate buffer to yield a final assay concentration of 0.1% (v/v) dimethyl sulfoxide. The same buffer and the same quantity of dimethyl sulfoxide, without any test compound was used for the control assays. The total assay volume was 100 µl and assays were performed in duplicate. The reaction was initiated by the addition of the testosterone, and incubated for 30 minutes at 25°C. The assay is linear with time to 30 minutes.
Depending on the nature of the inhibition, testosterone concentration was typically varied from 0.15 µM (approximately 0.5 Km) to 10 Km with radioactive label constant at 0.15 µCi per assay. The amount of test compound added was varied to provide final concentrations of 1 nM to 100 µM. The reaction was quenched by the addition of 50 volumes of chloroform:methanol (2:1). The steroids were then extracted and separated by high pressure liquid chromatography and the amounts of testosterone and dihydrotestosterone present were measured to determine the percent conversion of testosterone to dihydrotestosterone and to calculate the 5α-reductase activity. The activity of the test compound was then expressed as the IC₅₀, or the concentration of test compound that produced a 50% inhibition of the testosterone conversion. When compounds of the present invention were tested in this way, the following results were observed: […]

**Q.** With `CC(C)N(C(=O)[C@H]1CC[C@H]2[C@@H]3CCC4=C(N)C(=O)CC[C@]4(C)[C@H]3CC[C@]12C)C(C)C` [4-Amino-N,N-bis(1-methylethyl)-3-oxoandrost-4-ene-17β-carboxamide] as the compound, how does the IC50 read?
**A.** The IC50 was 104 nM.

**Q.** For `CC(C)(C)NC(=O)[C@H]1CC[C@H]2[C@@H]3CCC4=C(N)C(=O)CC[C@]4(C)[C@H]3CC[C@]12C` [4-Amino-N-(1,1-dimethylethyl)-3-oxoandrost-4-ene-17β-carboxamide], which IC50 is on record?
**A.** Its IC50 is 59 nM.

**Q.** `C[C@H](CO)[C@H]1CC[C@H]2[C@@H]3CCC4=C(N)C(=O)CC[C@]4(C)[C@H]3CC[C@]12C` [(20S)-4-Amino-21-hydroxy-20-methylpregn-4-en-3-one] was tested. Which IC50 did it give?
**A.** The IC50 was 54 nM.

**Q.** Which IC50 does the source give for `CC(=O)[C@H]1CC[C@H]2[C@@H]3CCC4=C(N)C(=O)CC[C@]4(C)[C@H]3CC[C@]12C` [4-Aminopregn-4-ene-3,20-dione] here?
**A.** The IC50 was 50 nM.
